According to ChEMBL document CHEMBL5726766, “Sulfonamide compounds as voltage-gated sodium channel modulators” (2019):
pIC50: −log10 of the molar value.

Test: (§1) Membrane potential dye assay: HEK-293 cells overexpressing the channel of interest were seeded in a 96-well plate at a density of 30000 cells/well and incubated at 37° C./5% CO2 for 48 hr. The assay was carried out using the Red Membrane Potential Dye (Molecular Devices) following the manufacturer's instructions. Briefly, the cells were incubated with 1× red membrane potential dye for 1.5 hour. The cells were then treated with various concentrations of the test compounds for 15-20 min followed by depolarization with 10-30 μM Veratridine. The fluorescence was read following excitation at 510-545 nm and emission at 565-625 nm in FLIPR. The “max-min” fluorescence values were used to calculate the % inhibition.
Conditions: HEK293

| Compound | pIC50 |
| --- | --- |
| O=S(=O)(Nc1ncc(F)cn1)c1ccc2c(c1)OCC[C@@H]2c1ccc(C(F)(F)F)cc1-c1nccs1 | 7.96 |
| O=S(=O)(Nc1cccc(F)n1)c1ccc2c(c1)OCC[C@H]2c1ccc(C(F)(F)F)cc1O[C@H]1CCOC1 | 6.08 |
| O=S(=O)(Nc1ncccn1)c1ccc2c(c1)OCC[C@H]2c1ccc(C(F)(F)F)cc1O[C@@H]1CCOC1 | 7.08 |
| Cc1nc(-c2cc(C(F)(F)F)ccc2[C@H]2CCOc3cc(S(=O)(=O)Nc4ncc(F)cn4)ccc32)cs1 | 8.10 |
| Cc1nc(-c2cc(C(F)(F)F)ccc2[C@@H]2CCOc3cc(S(=O)(=O)Nc4ncc(F)cn4)ccc32)cs1 | 7.80 |
| O=S(=O)(Nc1ncc(F)cn1)c1ccc2c(c1)OCC[C@H]2c1ccc(C(F)(F)F)cc1-c1nccs1 | 5.95 |
| O=S(=O)(Nc1cccc(F)n1)c1ccc2c(c1)OCC[C@@H]2c1ccc(C(F)(F)F)cc1O[C@H]1CCOC1 | 9.05 |
| O=S(=O)(Nc1ncccn1)c1ccc2c(c1)OCC[C@H]2c1ccc(C(F)(F)F)cc1OCCCF | < 5.00 |
| O=S(=O)(Nc1ncccn1)c1ccc2c(c1)OCC[C@@H]2c1ccc(C(F)(F)F)cc1O[C@H]1CCOC1 | 7.42 |
| O=S(=O)(Nc1ncccn1)c1ccc2c(c1)OCC[C@@H]2c1ccc(C(F)(F)F)cc1O[C@@H]1CCOC1 | 5.99 |
| O=S(=O)(Nc1ncccn1)c1ccc2c(c1)OCC[C@H]2c1ccc(C(F)(F)F)cc1O[C@H]1CCOC1 | 6.83 |

Test: as §1
Conditions: HEK293

| Compound | pIC50 |
| --- | --- |
| O=S(=O)(Nc1ncc(F)cn1)c1ccc2c(c1)OCC[C@@H]2c1ccc(C(F)(F)F)cc1-c1nccs1 | < 5.00 |
| O=S(=O)(Nc1cccc(F)n1)c1ccc2c(c1)OCC[C@H]2c1ccc(C(F)(F)F)cc1O[C@H]1CCOC1 | < 5.00 |
| Cc1nc(-c2cc(C(F)(F)F)ccc2[C@H]2CCOc3cc(S(=O)(=O)Nc4ncc(F)cn4)ccc32)cs1 | < 5.00 |
| Cc1nc(-c2cc(C(F)(F)F)ccc2[C@@H]2CCOc3cc(S(=O)(=O)Nc4ncc(F)cn4)ccc32)cs1 | < 5.00 |
| O=S(=O)(Nc1ncc(F)cn1)c1ccc2c(c1)OCC[C@H]2c1ccc(C(F)(F)F)cc1-c1nccs1 | < 5.00 |
| O=S(=O)(Nc1ncccn1)c1ccc2c(c1)OCC[C@H]2c1ccc(C(F)(F)F)cc1OCCCF | < 5.00 |
| O=S1(=O)CCN(c2cc(C(F)(F)F)ccc2[C@H]2CCOc3cc(S(=O)(=O)Nc4cccc(F)n4)ccc32)CC1 (racemic) | < 5.00 |
| O=S(=O)(Nc1ccncn1)c1ccc2c(c1)OCC[C@@H]2c1ccc(C(F)(F)F)cc1-n1ccnn1 | < 5.00 |
| Cn1nccc1-c1cc(Cl)ccc1[C@H]1CCOc2cc(S(=O)(=O)Nc3cccc(F)n3)ccc21 | < 5.00 |
| COc1cc(C(F)(F)F)ccc1[C@H]1CCOc2cc(S(=O)(=O)Nc3ncccn3)ccc21 | < 5.00 |
| COCCCc1cc(C(F)(F)F)ccc1[C@@H]1CCOc2cc(S(=O)(=O)Nc3ncccn3)ccc21 | < 5.00 |
| Cc1nc(-c2cc(C(F)(F)F)ccc2[C@H]2CCOc3cc(S(=O)(=O)Nc4cccnn4)ccc32)cs1 | < 5.00 |
| COCCc1cc(C(F)(F)F)ccc1[C@H]1CCOc2cc(S(=O)(=O)Nc3ncccn3)ccc21 (racemic) | < 5.00 |
| CS(=O)(=O)CCc1cc(C(F)(F)F)ccc1[C@H]1CCOc2cc(S(=O)(=O)Nc3ncc(F)cn3)ccc21 | < 5.00 |
| O=S(=O)(Nc1cccc(F)n1)c1ccc2c(c1)OCC[C@@H]2c1ccc(C(F)(F)F)cc1-n1ccnn1 | < 5.00 |
| O=S(=O)(Nc1cccc(F)n1)c1ccc2c(c1)OCC[C@@H]2c1ccc(C(F)(F)F)cc1-n1cccn1 | < 5.00 |
| O=S(=O)(Nc1ncc(F)cn1)c1ccc2c(c1)OCC[C@@H]2c1ccc(C(F)(F)F)cc1CCF (racemic) | < 5.00 |
| O=S(=O)(Nc1ncccn1)c1ccc2c(c1)OCC[C@@H]2c1ccc(C(F)(F)F)cc1O[C@@H]1CCOC1 | < 5.00 |
| Cn1nccc1-c1cc(C(F)(F)F)ccc1[C@@H]1CCOc2cc(S(=O)(=O)Nc3ccncn3)ccc21 | < 5.00 |

| Compound | pIC50 |
| --- | --- |
| CS(=O)(=O)CCc1cc(C(F)(F)F)ccc1[C@@H]1CCOc2cc(S(=O)(=O)Nc3ccncn3)ccc21 | < 5.00 |
| O=S1(=O)CCN(c2cc(C(F)(F)F)ccc2[C@H]2CCOc3cc(S(=O)(=O)Nc4cccnn4)ccc32)CC1 (racemic) | < 5.00 |
| O=S(=O)(Nc1ncc(F)cn1)c1ccc2c(c1)OCC[C@H]2c1ccc(C(F)(F)F)cc1OC1CCOCC1 | < 5.00 |
| COCCc1cc(C(F)(F)F)ccc1[C@H]1CCOc2cc(S(=O)(=O)Nc3ccncn3)ccc21 (racemic) | < 5.00 |
| O=C1CCCN1c1cc(C(F)(F)F)ccc1[C@H]1CCOc2cc(S(=O)(=O)Nc3ncccn3)ccc21 (racemic) | < 5.00 |
| Cc1nc(-c2cc(C(F)(F)F)ccc2[C@@H]2CCOc3cc(S(=O)(=O)Nc4ncccn4)ccc32)cs1 | < 5.00 |
| O=C1COCCN1c1cc(C(F)(F)F)ccc1[C@H]1CCOc2cc(S(=O)(=O)Nc3ncccn3)ccc21 | < 5.00 |
| O=S(=O)(Nc1ncccn1)c1ccc2c(c1)OCC[C@H]2c1ccc(C(F)(F)F)cc1OC1COC1 | < 5.00 |
| O=S(=O)(Nc1ncc(F)cn1)c1ccc2c(c1)OCC[C@@H]2c1ccc(C(F)(F)F)cc1CCC(F)F (racemic) | < 5.00 |
| CS(=O)(=O)CCc1cc(C(F)(F)F)ccc1[C@@H]1CCOc2cc(S(=O)(=O)Nc3ncccn3)ccc21 | < 5.00 |
| O=C(O)c1ccc(-c2cc(C(F)(F)F)ccc2[C@H]2CCOc3cc(S(=O)(=O)Nc4ncc(F)cn4)ccc32)cc1 | < 5.00 |
| Cn1nccc1-c1cc(C(F)(F)F)ccc1[C@H]1CCOc2cc(S(=O)(=O)Nc3ncccc3F)ccc21 | < 5.00 |
| O=S(=O)(Nc1cccc(F)n1)c1ccc2c(c1)OCC[C@@H]2c1ccc(C(F)(F)F)cc1CCF (racemic) | < 5.00 |
| COCCCOc1cc(C(F)(F)F)ccc1[C@H]1CCOc2cc(S(=O)(=O)Nc3ncc(F)cn3)ccc21 (racemic) | < 5.00 |
| CS(=O)(=O)CCc1cc(C(F)(F)F)ccc1[C@@H]1CCOc2cc(S(=O)(=O)Nc3ncc(F)cn3)ccc21 | < 5.00 |
| Cn1nccc1-c1cc(C(F)(F)F)ccc1[C@@H]1CCOc2cc(S(=O)(=O)Nc3cccnc3F)ccc21 | < 5.00 |
| O=S(=O)(Nc1ncccn1)c1ccc2c(c1)OCC[C@H]2c1ccc(C(F)(F)F)cc1O[C@H]1CCOC1 | < 5.00 |
| O=S(=O)(Nc1ccncn1)c1ccc2c(c1)OCC[C@@H]2c1ccc(C(F)(F)F)cc1CCF (racemic) | < 5.00 |
| O=C1CCCN1c1cc(C(F)(F)F)ccc1[C@H]1CCOc2cc(S(=O)(=O)Nc3ncc(F)cn3)ccc21 | < 5.00 |
